Measured values published in the supplement of paper PMC10011410.
± gives the standard deviation of the averaged measurements.

Legend:
U-2 OS [1] = test: intracellular GSH:GSSG ratio (calculated); higher = more reduced glutathione pool; details: 24 h
Experimental: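 Intracellular glutathione in U-2 OS cells after 24 h compound treatment at 5, 10 and 20 uM (some at 40 and 80 uM). Total glutathione and GSSG were measured with the GSH/GSSG-Glo kit, and the GSH:GSSG ratio was calculated. Mean of five technical replicate plates.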

U-2 OS [2] = test: cell painting activity score (Mahalanobis distance from DMSO wells); higher = stronger morphological phenotype; details: 24 h
Method in brief: (§1)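 U-2 OS cells were seeded at about 1,500 per well in 384-well plates and treated by pin tool for 24 h at 37 °C, usually at six 2-fold concentrations from 20 μM to 625 nM. After staining with MitoTracker, concanavalin A, phalloidin, wheat germ agglutinin, Hoechst and SYTO 14, plates were imaged on an Opera Phenix and features were extracted with CellProfiler and normalized to DMSO cells on the same plate. The activity score is the Mahalanobis distance from DMSO wells, and cell count is given relative to DMSO wells. Each value is the mean of four replicate plates.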

U-2 OS [3] = test: AUC of culture confluence over time (live-cell imaging) (AUC (confluence % x time)); higher = more confluent culture (less growth inhibition)
Method in brief: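 The value is the area under the curve of confluence plotted against time. U-2 OS cells in F-12K medium with 10% FBS were seeded at 750 per well in 384-well plates, then treated by pin tool 24 h later, most compounds at 20, 10 and 5 μM with 0.2% DMSO. At 37 °C, an Incucyte S3 with a 10x objective imaged the wells every 4 h for up to 60 h.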

U-2 OS [4] = test: total intracellular glutathione (GSH + GSSG) relative to DMSO (% of control); higher = more glutathione; details: 24 h
Experimental: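 Total intracellular glutathione (GSH + GSSG) in U-2 OS cells by GSH/GSSG-Glo after 24 h compound treatment at 5, 10 and 20 uM (some at 40 and 80 uM), as percent of DMSO control. Five technical replicate plates, averaged.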

U-2 OS [5] = test: relative cell count vs DMSO (cell painting) (fraction of DMSO control); higher = more cells remaining (less cytotoxic); details: 24 h
Method in brief: as §1

U-2 OS [6] = test: cell viability (CellTiter-Glo) relative to DMSO (% of control); higher = more viable; details: 24 h
Experimental: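 Cell viability of U-2 OS cells by CellTiter-Glo after 24 h compound treatment at 5, 10 and 20 uM (some at 40 and 80 uM), measured in parallel with the glutathione assay, as percent of DMSO control. Five technical replicate plates, averaged.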

| Compound | intracellular GSH:GSSG ratio (U-2 OS [1]; 5 µM) | intracellular GSH:GSSG ratio (U-2 OS [1]; 10 µM) | intracellular GSH:GSSG ratio (U-2 OS [1]; 20 µM) | intracellular GSH:GSSG ratio (U-2 OS [1]; 40 µM) | intracellular GSH:GSSG ratio (U-2 OS [1]; 80 µM) | cell painting activity score (U-2 OS [2]; 0.625 µM) | cell painting activity score (U-2 OS [2]; 1.25 µM) | cell painting activity score (U-2 OS [2]; 2.5 µM) | cell painting activity score (U-2 OS [2]; 5 µM) | cell painting activity score (U-2 OS [2]; 10 µM) | cell painting activity score (U-2 OS [2]; 20 µM) | cell painting activity score (U-2 OS [2]; 40 µM) | cell painting activity score (U-2 OS [2]; 80 µM) | AUC of culture confluence over time (U-2 OS [3]; 5 µM) | AUC of culture confluence over time (U-2 OS [3]; 10 µM) | AUC of culture confluence over time (U-2 OS [3]; 20 µM) | AUC of culture confluence over time (U-2 OS [3]; 40 µM) | AUC of culture confluence over time (U-2 OS [3]; 80 µM) | total intracellular glutathione (U-2 OS [4]; 5 µM) | total intracellular glutathione (U-2 OS [4]; 10 µM) | total intracellular glutathione (U-2 OS [4]; 20 µM) | total intracellular glutathione (U-2 OS [4]; 40 µM) | total intracellular glutathione (U-2 OS [4]; 80 µM) | relative cell count (U-2 OS [5]; 0.625 µM) | relative cell count (U-2 OS [5]; 1.25 µM) | relative cell count (U-2 OS [5]; 2.5 µM) | relative cell count (U-2 OS [5]; 5 µM) | relative cell count (U-2 OS [5]; 10 µM) | relative cell count (U-2 OS [5]; 20 µM) | relative cell count (U-2 OS [5]; 40 µM) | relative cell count (U-2 OS [5]; 80 µM) | cell viability (U-2 OS [6]; 5 µM) | cell viability (U-2 OS [6]; 10 µM) | cell viability (U-2 OS [6]; 20 µM) | cell viability (U-2 OS [6]; 40 µM) | cell viability (U-2 OS [6]; 80 µM) | cell painting activity score (U-2 OS [2]; 0.15624 µM) | cell painting activity score (U-2 OS [2]; 0.3124 µM) | relative cell count (U-2 OS [5]; 0.15624 µM) | relative cell count (U-2 OS [5]; 0.3124 µM) |
| --- | --- | --- | --- | --- | --- | --- | --- | --- | --- | --- | --- | --- | --- | --- | --- | --- | --- | --- | --- | --- | --- | --- | --- | --- | --- | --- | --- | --- | --- | --- | --- | --- | --- | --- | --- | --- | --- | --- | --- | --- |
| O=C(O[C@@H]1Cc2c(O)cc(O)cc2O[C@@H]1c1cc(O)c(O)c(O)c1)c1cc(O)c(O)c(O)c1 | 24.8 | 18.8 | 11.4 | 14 | 12 | 3.76 | 4.88 | 4.25 | 4.82 | 5.68 | 10.4 | 4.51 | 14.8 | 48.7 | 49.6 | 48.6 | 41.4 | 28.3 | 96 ± 2.7 | 102 ± 5.6 | 63.7 ± 3.8 | 77.8 ± 5.7 | 53.9 ± 4.4 | 0.966 | 1 | 0.981 | 0.96 | 0.989 | 0.897 | 0.843 | 0.466 | 98.8 ± 3.2 | 97.6 ± 4.7 | 69.1 ± 19 | 83 ± 14 | 43.2 ± 2.7 |  |  |  |  |
| c1ccc(-c2noc(NC3CCCC3)n2)cc1 | 28.5 | 30.3 | 26 |  |  | 2.72 | 2.85 | 2.97 | 3.02 | 2.62 | 3.1 |  |  | 44 | 42.5 | 44.2 |  |  | 103 ± 5.1 | 103 ± 10 | 107 ± 7.1 |  |  | 1.03 | 1.02 | 1.06 | 1.05 | 1.07 | 1.06 |  |  | 95.5 ± 6.9 | 101 ± 8.9 | 97 ± 6.5 |  |  |  |  |  |  |
| CCCCCCCCCCCCCCCc1cccc(O)c1C(=O)O | 19 | 18.3 | 24.7 | 19.7 | 18.1 | 3.17 | 3.13 | 3.54 | 3.63 | 4.51 | 3.58 | 12.9 | 21 | 42.7 | 53.4 | 52.9 | 51.2 | 40.9 | 105 ± 3.3 | 94.7 ± 4.2 | 98.8 ± 4.7 | 95.5 ± 3.8 | 96.7 ± 3.9 | 1.09 | 1.09 | 1.13 | 1.05 | 1.01 | 1.05 | 0.326 | 0.342 | 102 ± 3 | 106 ± 5.8 | 100 ± 2.9 | 104 ± 4.9 | 101 ± 5.3 |  |  |  |  |
| C=CC(=O)Nc1cc2c(Nc3ccc(F)c(Cl)c3)ncnc2cc1OCCCN1CCOCC1 | 7.51 | 1.96 | 0.352 |  |  | 15.6 | 19.4 | 27.2 | 25.4 | 25.3 | 26.9 |  |  | 19.1 | 13.7 | 9.96 |  |  | 69.5 ± 4.6 | 11.2 ± 1.2 | 4.36 ± 0.66 |  |  | 0.407 | 0.133 | 0.0844 | 0.0662 | 0.0483 | 0.019 |  |  | 57.1 ± 4.1 | 6.54 ± 1.9 | 4.85 ± 1.7 |  |  |  |  |  |  |
| O=[N+]([O-])c1c(Cl)cc(Cl)c2nsnc12 | 13.9 | 6.83 | 2.56 |  |  | 5.1 | 10.7 | 14.1 | 17.8 | 25.1 | 24.4 |  |  | 19.8 | 10.2 | 8 |  |  | 116 ± 6.5 | 81.7 ± 6 | 48.7 ± 3.5 |  |  | 0.967 | 0.626 | 0.447 | 0.222 | 0.02 | 0.0161 |  |  | 88.3 ± 13 | 52.4 ± 10 | 19.5 ± 8.6 |  |  |  |  |  |  |
| O=S1(=O)CC(N2CCCC2)c2ccccc21 (stereo not given) | 30.8 | 37.7 | 28.5 |  |  | 5.04 | 4.39 | 4.11 | 3.43 |  |  |  |  | 49.4 |  |  |  |  | 97.6 ± 3.1 | 98.8 ± 6.1 | 102 ± 5.3 |  |  | 0.972 | 0.969 | 0.957 | 0.962 |  |  |  |  | 103 ± 3.5 | 103 ± 6.5 | 109 ± 6.8 |  |  | 4.13 | 3.66 | 0.962 | 0.979 |
| Cc1cc(-c2ccccc2)cc(C(=O)NNS(=O)(=O)c2ccccc2)c1F | 37 | 26 | 29 |  |  | 6.33 | 7.18 | 6.97 | 6.92 | 8.27 | 8.87 |  |  | 52.8 | 51.6 | 46.7 |  |  | 124 ± 13 | 109 ± 5.4 | 110 ± 4.2 |  |  | 0.914 | 0.965 | 0.931 | 0.965 | 0.952 | 0.966 |  |  | 109 ± 6 | 101 ± 7.7 | 98.9 ± 2.5 |  |  |  |  |  |  |
